According to ChEMBL document CHEMBL3526112, “Brain uptake of the drug of abuse γ-hydroxybutyric acid in rats” (Drug Metab Dispos, 2012):

Legend:
[1] = Drug uptake in rat RBE4 cells at 58 nM at pH 7.4 after 15 to 30 seconds by liquid scintillation counting; format: ADME, cell-based; settings: rbe4, pH 7.4, 0.058 µM
Rattus norvegicus [2] = test: Increase of sleep time in Sprague-Dawley rat at 400 mg/kg, iv; format: functional
[3] = Cmax in Sprague-Dawley rat extracellular fluid of brain at 800 mg/kg, iv; format: ADME, organism-based; design: dose 800 mg/kg, route intravenous; settings: in vivo
Plasma [4] = test: Cmax in Sprague-Dawley rat plasma at 400 mg/kg, iv after 30 to 180 mins; format: ADME, organism-based; design: dose 400 mg/kg, route intravenous; settings: in vivo
Rattus norvegicus [5] = test: Increase of sleep time in Sprague-Dawley rat at 600 mg/kg, iv; format: functional
[6] = Renal clearance in Sprague-Dawley rat at 600 mg/kg, iv; format: ADME, organism-based, Kidney; design: dose 600 mg/kg, route intravenous; settings: in vivo
[7] = Drug recovery in Sprague-Dawley rat brain frontal cortex at 400 to 800 mg/kg, iv by microdialysis; format: ADME, organism-based; design: dose 400-800 mg/kg, route intravenous; settings: in vivo
Plasma [8] = test: AUC in Sprague-Dawley rat plasma at 400 mg/kg, iv; format: ADME, organism-based; design: dose 400 mg/kg, route intravenous; settings: in vivo
[9] = Tmax in Sprague-Dawley rat plasma at 600 mg/kg, iv; format: ADME, organism-based; design: dose 600 mg/kg, route intravenous
[10] = Renal clearance in Sprague-Dawley rat at 400 mg/kg, iv; format: ADME, organism-based, Kidney; design: dose 400 mg/kg, route intravenous; settings: in vivo
Plasma [11] = test: AUC in Sprague-Dawley rat plasma at 600 mg/kg, iv; format: ADME, organism-based; design: dose 600 mg/kg, route intravenous; settings: in vivo
[12] = Renal clearance in Sprague-Dawley rat at 800 mg/kg, iv; format: ADME, organism-based, Kidney; design: dose 800 mg/kg, route intravenous; settings: in vivo
[13] = Tmax in Sprague-Dawley rat extracellular fluid of brain at 400 mg/kg, iv; format: ADME, organism-based; design: dose 400 mg/kg, route intravenous
Rattus norvegicus [14] = test: Increase of sleep time in Sprague-Dawley rat at 800 mg/kg, iv; format: functional
Brain [15] = test: AUC in Sprague-Dawley rat extracellular fluid of brain at 400 mg/kg, iv; format: ADME, organism-based; design: dose 400 mg/kg, route intravenous; settings: in vivo
[16] = Cmax in Sprague-Dawley rat extracellular fluid of brain at 400 mg/kg, iv; format: ADME, organism-based; design: dose 400 mg/kg, route intravenous; settings: in vivo
Brain [17] = test: AUC in Sprague-Dawley rat extracellular fluid of brain at 800 mg/kg, iv; format: ADME, organism-based; design: dose 800 mg/kg, route intravenous; settings: in vivo
[18] = Drug uptake in rat RBE4 cells at 10 mM at pH 6.5 up to 10 mins by Michaelis-Menten analysis relative to at pH 7.4; format: ADME, cell-based; settings: rbe4, pH 6.5, 10 min, 10000 µM
Plasma [19] = test: Cmax in Sprague-Dawley rat plasma at 600 mg/kg, iv after 30 to 180 mins; format: ADME, organism-based; design: dose 600 mg/kg, route intravenous; settings: in vivo
[20] = Tmax in Sprague-Dawley rat extracellular fluid of brain at 600 mg/kg, iv; format: ADME, organism-based; design: dose 600 mg/kg, route intravenous
[21] = Drug uptake in human hCMEC/D3 cells at 58 nM at pH 7.4 after 15 to 30 seconds by liquid scintillation counting; format: ADME, cell-based; settings: hcmec/d3, pH 7.4, 0.058 µM
[22] = Dissociation constant, pKa of the compound; format: physicochemical
[23] = Drug uptake in human hCMEC/D3 cells at pH 7.4 up to 10 mins by Michaelis-Menten analysis; format: ADME, cell-based
[24] = Ratio of extracellular fluid of brain AUC to plasma AUC in Sprague-Dawley rat at 600 mg/kg, iv; format: ADME, organism-based; design: dose 600 mg/kg, route intravenous; settings: read-out: Ratio AUC
[25] = Tmax in Sprague-Dawley rat extracellular fluid of brain at 800 mg/kg, iv; format: ADME, organism-based; design: dose 800 mg/kg, route intravenous
[26] = Drug uptake in rat RBE4 cells at pH 7.4 up to 10 mins by Michaelis-Menten analysis; format: ADME, cell-based
[27] = Cmax in Sprague-Dawley rat extracellular fluid of brain at 600 mg/kg, iv; format: ADME, organism-based; design: dose 600 mg/kg, route intravenous; settings: in vivo
[28] = Tmax in Sprague-Dawley rat plasma at 400 mg/kg, iv; format: ADME, organism-based; design: dose 400 mg/kg, route intravenous
[29] = Drug uptake in human hCMEC/D3 cells at 10 mM at pH 6.5 up to 10 mins by Michaelis-Menten analysis relative to at pH 7.4; format: ADME, cell-based; settings: hcmec/d3, pH 6.5, 10 min, 10000 µM
[30] = Tmax in Sprague-Dawley rat plasma at 800 mg/kg, iv; format: ADME, organism-based; design: dose 800 mg/kg, route intravenous
Brain [31] = test: AUC in Sprague-Dawley rat extracellular fluid of brain at 600 mg/kg, iv; format: ADME, organism-based; design: dose 600 mg/kg, route intravenous; settings: in vivo
[32] = Ratio of extracellular fluid of brain AUC to plasma AUC in Sprague-Dawley rat at 800 mg/kg, iv; format: ADME, organism-based; design: dose 800 mg/kg, route intravenous; settings: read-out: Ratio AUC
Plasma [33] = test: Cmax in Sprague-Dawley rat plasma at 800 mg/kg, iv after 30 to 180 mins; format: ADME, organism-based; design: dose 800 mg/kg, route intravenous; settings: in vivo
Plasma [34] = test: AUC in Sprague-Dawley rat plasma at 800 mg/kg, iv; format: ADME, organism-based; design: dose 800 mg/kg, route intravenous; settings: in vivo
Plasma [35] = test: Cmax in Sprague-Dawley rat plasma at 400 mg/kg, iv; format: ADME, organism-based; design: dose 400 mg/kg, route intravenous; settings: in vivo
Rattus norvegicus [36] = test: Increase of sleep time in iv dosed Sprague-Dawley rat; format: functional, organism-based
[37] = Ratio of extracellular fluid of brain AUC to plasma AUC in Sprague-Dawley rat at 400 mg/kg, iv; format: ADME, organism-based; design: dose 400 mg/kg, route intravenous; settings: read-out: Ratio AUC

Compound: O=C([O-])CCCO.[Na+] [SODIUM OXYBATE]
- Drug uptake [1]: Active
- Time (Rattus norvegicus [2]): 90.4 min
- Cmax [3]: 660 µM
- Cmax (Plasma [4]): 600 µM
- Time (Rattus norvegicus [5]): 138 min
- CL renal [6]: 1.41 mL/min/kg
- Drug recovery [7]: 32.5%
- AUC (Plasma [8]): 66 mg·min/mL
- Tmax [9]: 5 min
- CL renal [10]: 1.55 mL/min/kg
- AUC (Plasma [11]): 124 mg·min/mL
- CL renal [12]: 2.18 mL/min/kg
- Tmax [13]: 50 min
- Time (Rattus norvegicus [14]): 171 min
- AUC (Brain [15]): 4.9 mg·min/mL
- Cmax [16]: 390 µM
- AUC (Brain [17]): 11.2 mg·min/mL
- Drug uptake [18]: 126%
- Cmax (Plasma [19]): 2400 µM
- Tmax [20]: 50 min
- Drug uptake [21]: Active
- pKa [22]: 4.72
- Km at 10 min ([23]; hCMEC/D3 cells, pH 7.4): 18.1 mM
- Vmax ([23]; hcmec/d3, pH 7.4, 10 min): 248 pmol/mg/min
- Kp [24]: 0.07
- Tmax [25]: 50 min
- Km at 10 min ([26]; RBE4 cells, pH 7.4): 23.3 mM
- Vmax ([26]; rbe4, pH 7.4, 10 min): 258 pmol/mg/min
- Cmax [27]: 550 µM
- Tmax [28]: 5 min
- Drug uptake [29]: 126%
- Tmax [30]: 5 min
- AUC (Brain [31]): 8.7 mg·min/mL
- Kp [32]: 0.07
- Cmax (Plasma [33]): 3400 µM
- AUC (Plasma [34]): 145 mg·min/mL
- Cmax (Plasma [35]): 8400 µM
- Activity (Rattus norvegicus [36]): Dose-dependent effect
- Kp [37]: 0.079
